Measurements published in PubChem BioAssay (NCI).
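96-well plates; 48 h exposure; 5 concentrations. Endpoints by linear interpolation between flanking doses. Not reached: highest tested concentration assigned. GI50 is the concentration that inhibits growth by half. TGI marks complete inhibition of growth.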

Tests used:
Assay in all cases: NCI tumour cell line growth inhibition, 48 h
COLO 205 colon = tested on: COLO 205 colon
HOP-92 NSCLC = tested on: HOP-92 NSCLC
MALME-3M melanoma = tested on: MALME-3M melanoma
MOLT-4 leukemia = tested on: MOLT-4 leukemia
OVCAR-4 ovarian = tested on: OVCAR-4 ovarian
RXF 393 renal = tested on: RXF 393 renal
SF-295 CNS = tested on: SF-295 CNS
SK-MEL-28 melanoma = tested on: SK-MEL-28 melanoma
SW-620 colon = tested on: SW-620 colon
UACC-62 melanoma = tested on: UACC-62 melanoma

**Q.** With `COc1cnc2c(c1)C(=O)c1c-2n(CCCN2CCOCC2)c(=O)c2cc(Cl)ccc12` as the molecule, how does the GI50 (COLO 205 colon) read?
**A.** Its GI50 is 0.193 µM.

**Q.** And the TGI (COLO 205 colon)?
**A.** Its TGI is greater than 100 µM.

**Q.** What about the GI50 (HOP-92 NSCLC) of the same molecule?
**A.** Its GI50 is 32.7 µM.

**Q.** What about the TGI (HOP-92 NSCLC) of the same molecule?
**A.** Its TGI is greater than 100 µM.

**Q.** And the GI50 (MALME-3M melanoma)?
**A.** The GI50 was greater than 100 µM.

**Q.** What about the TGI (MALME-3M melanoma) of the same molecule?
**A.** Its TGI is greater than 100 µM.

**Q.** And the GI50 (MOLT-4 leukemia)?
**A.** Its GI50 is 0.267 µM.

**Q.** And the TGI (MOLT-4 leukemia)?
**A.** The TGI was greater than 100 µM.

**Q.** And the GI50 (OVCAR-4 ovarian)?
**A.** Its GI50 is greater than 100 µM.

**Q.** And the TGI (OVCAR-4 ovarian)?
**A.** The TGI was greater than 100 µM.

**Q.** And the GI50 (RXF 393 renal)?
**A.** Its GI50 is 0.332 µM.

**Q.** What about the TGI (RXF 393 renal) of the same molecule?
**A.** The TGI was 28 µM.

**Q.** What about the GI50 (SF-295 CNS) of the same molecule?
**A.** The GI50 was 0.239 µM.

**Q.** What about the TGI (SF-295 CNS) of the same molecule?
**A.** The TGI was 0.664 µM.

**Q.** What about the GI50 (SK-MEL-28 melanoma) of the same molecule?
**A.** The GI50 was greater than 100 µM.

**Q.** And the TGI (SK-MEL-28 melanoma)?
**A.** The TGI was greater than 100 µM.

**Q.** What about the GI50 (SW-620 colon) of the same molecule?
**A.** Its GI50 is 0.232 µM.

**Q.** What about the TGI (SW-620 colon) of the same molecule?
**A.** Its TGI is greater than 100 µM.

**Q.** What about the GI50 (UACC-62 melanoma) of the same molecule?
**A.** The GI50 was 0.187 µM.

**Q.** What about the TGI (UACC-62 melanoma) of the same molecule?
**A.** Its TGI is greater than 100 µM.

**Q.** With `COc1cccc(N2C(Cl)C(=O)C2c2c[nH]c3ccccc23)c1` (stereo not given) as the molecule, how does the TGI (COLO 205 colon) read?
**A.** The TGI was greater than 100 µM.

**Q.** And the TGI (HOP-92 NSCLC)?
**A.** Its TGI is greater than 100 µM.

**Q.** And the TGI (MALME-3M melanoma)?
**A.** Its TGI is greater than 100 µM.

**Q.** And the TGI (MOLT-4 leukemia)?
**A.** The TGI was greater than 100 µM.

**Q.** What about the TGI (OVCAR-4 ovarian) of the same molecule?
**A.** Its TGI is greater than 100 µM.

**Q.** And the TGI (RXF 393 renal)?
**A.** Its TGI is greater than 100 µM.

**Q.** What about the TGI (SF-295 CNS) of the same molecule?
**A.** The TGI was greater than 100 µM.

**Q.** What about the TGI (SK-MEL-28 melanoma) of the same molecule?
**A.** The TGI was greater than 100 µM.

**Q.** And the TGI (SW-620 colon)?
**A.** The TGI was greater than 100 µM.

**Q.** What about the TGI (UACC-62 melanoma) of the same molecule?
**A.** The TGI was greater than 100 µM.
